Literature values, collected in patent publication US20230210786A1, “METHOD FOR SO[…], […] […] CANNABINOIDS” (ATHENION AG, priority 2020, published 2023).

Conditions: in vivo

CCCCCc1cc(O)c2c(c1)OC(C)(C)[C@@H]1CCC(C)=C[C@@H]21 [THC, (-)-trans-Δ^9-tetrahydrocannabinol]
apparent volume of distribution: 10 L/kg
plasma protein binding: ca. 97%
